According to EPA's ToxValDB 9.5 (doi:10.2903/j.efsa.2013.3052):

Legend:
[1] = tested on: Anas platyrhynchos; details: short-term; oral; feed; mortality
[2] = tested on: Apis mellifera; details: acute, duration: 48 hours, mortality
[3] = tested on: Bibionidae; details: chronic/long-term; duration: 28 days; other
[4] = tested on: Colinus virginianus
[5] = tested on: Cyprinodon variegatus; details: acute; duration: 96 hours; mortality
[6] = tested on: Daphnia magna; details: chronic/long-term; duration: 21 days; reproduction
[7] = tested on: Folsomia candida; details: chronic/long-term; duration: 28 days; reproduction
[8] = tested on: Hypoaspis aculeifer; details: chronic/long-term; duration: 14 days; reproduction
[9] = tested on: Mus musculus; details: subchronic; duration: 90 days; oral; diet; organ weight
[10] = tested on: Neomysis kadiakensis; details: acute; duration: 96 hours; mortality
[11] = tested on: Pimephales promelas; details: chronic/long-term; duration: 33 days; behavior
[12] = tested on: Rattus norvegicus
[13] = tested on: Tagia sp.

Structure (SMILES): O=C(NCCc1ncc(C(F)(F)F)cc1Cl)c1ccccc1C(F)(F)F [Fluopyram]
- LC50 [1]: > 1640 mg/kg-day
- LD50 ([2]; dermal): > 100 µg/piece
- LD50 ([2]; oral, unspecified): > 102 µg/piece
- NOEC [3]: 1.39 mg/L
- LD50 ([4]; acute, oral, mortality): > 2000 mg/kg-day
- NOAEL ([4]; reproduction developmental): 7.2 mg/kg-day
- LC50 [5]: > 0.98 µg/mL
- NOEC [6]: 1.25 mg/L
- NOEC [7]: 104 mg/kg
- NOEC [8]: > 415 mg/kg
- NOAEL [9]: 5.4 mg/kg-day
- LC50 [10]: > 0.5 µg/mL
- NOEC [11]: 0.135 mg/L
- NOAEL ([12]; acute, F, neurology): 50 mg/kg-day
- LD50 ([12]; acute, oral, mortality): > 2000 mg/kg-day
- NOAEL ([12]; chronic): 14.5 mg/kg-day
- NOAEL ([12]; chronic, duration: 2 years, oral, diet, body weight): 1.2 mg/kg-day
- LC50 ([13]; acute, duration: 14 days, mortality): > 1000 mg/kg
- NOEC ([13]; chronic/long-term, duration: 56 days, reproduction): 11.4 mg/kg
